Measurements reported in article PMC4354951 (European journal of medicinal chemistry, 2008).

Columns and labels:
[1] = test system: 1321N1 astrocytoma and C6 glioma cells; details: via NPPs and CD73 ref 39; cited from earlier work
P2Y1R = details: cited from earlier work
P2X1R = details: cited from earlier work
P2X2/3Rs = details: cited from earlier work
ecto-5′-nucleotidases = details: muscle strip preparations, 60 min incubation ref 21; cited from earlier work
human NTPDase8 = target: T1, human NTPDase8 (Homo sapiens, UniProt Q5MY95); experiment: Hydrolysis by NTPDase8; type: biochemical; details: 100 μM substrate; relative to ATP hydrolysis (100%)
T1 sequence (Q5MY95 1-495): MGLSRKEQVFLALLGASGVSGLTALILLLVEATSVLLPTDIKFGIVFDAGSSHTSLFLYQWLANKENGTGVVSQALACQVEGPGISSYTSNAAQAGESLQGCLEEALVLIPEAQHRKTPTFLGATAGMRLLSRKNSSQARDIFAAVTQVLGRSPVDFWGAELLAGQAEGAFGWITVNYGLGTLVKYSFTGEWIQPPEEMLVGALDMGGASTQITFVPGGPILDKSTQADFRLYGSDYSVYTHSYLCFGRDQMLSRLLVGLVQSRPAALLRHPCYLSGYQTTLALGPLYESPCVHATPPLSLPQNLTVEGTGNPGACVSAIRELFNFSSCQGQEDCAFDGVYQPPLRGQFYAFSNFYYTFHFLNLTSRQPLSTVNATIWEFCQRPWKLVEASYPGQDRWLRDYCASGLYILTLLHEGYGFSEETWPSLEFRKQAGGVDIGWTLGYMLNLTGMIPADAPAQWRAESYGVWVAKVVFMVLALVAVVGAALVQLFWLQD

[2] = Chemical hydrolysis under gastric juice-like conditions; type: physicochemical; details: pH 1.4, 37 °C
[3] = Stability in human blood serum, Method A; type: in vitro ADME; details: half-life vs ATP
rat P2Y6 receptor = rat P2Y6 receptor (Rattus norvegicus, UniProt Q63371); experiment: Increase in [Ca2+]i in 1321N1 astrocytoma cells expressing P2Y6 receptor; type: cell-based
Sequence of rat P2Y6 receptor (Q63371 whole entry): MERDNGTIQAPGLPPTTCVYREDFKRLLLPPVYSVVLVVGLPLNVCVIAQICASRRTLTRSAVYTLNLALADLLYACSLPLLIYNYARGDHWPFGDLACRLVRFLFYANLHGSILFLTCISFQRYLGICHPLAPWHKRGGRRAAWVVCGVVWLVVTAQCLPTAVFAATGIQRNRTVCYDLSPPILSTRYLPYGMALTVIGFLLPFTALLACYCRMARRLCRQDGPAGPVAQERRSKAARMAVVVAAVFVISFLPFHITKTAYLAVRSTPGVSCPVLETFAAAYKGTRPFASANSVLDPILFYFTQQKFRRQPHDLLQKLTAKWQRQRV

turkey P2Y1 receptor = turkey P2Y1 receptor (Meleagris gallopavo, UniProt P49652); type: cell-based; details: 1321N1 cell transfectants
Sequence of turkey P2Y1 receptor (P49652 whole entry): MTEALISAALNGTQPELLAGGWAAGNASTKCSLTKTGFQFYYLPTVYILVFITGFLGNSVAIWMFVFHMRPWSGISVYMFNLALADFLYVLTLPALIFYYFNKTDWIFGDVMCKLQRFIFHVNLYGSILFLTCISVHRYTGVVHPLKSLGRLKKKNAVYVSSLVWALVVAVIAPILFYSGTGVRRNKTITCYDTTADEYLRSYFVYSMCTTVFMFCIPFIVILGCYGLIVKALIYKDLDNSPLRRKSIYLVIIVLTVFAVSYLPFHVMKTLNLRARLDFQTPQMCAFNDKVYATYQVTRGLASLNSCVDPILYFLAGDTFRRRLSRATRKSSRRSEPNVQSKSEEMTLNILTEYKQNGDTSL

human P2Y4 receptor = human P2Y4 receptor (Homo sapiens, UniProt P51582); experiment: Increase in [Ca2+]i in 1321N1 astrocytoma cells expressing P2Y4 receptor; type: cell-based
Sequence of human P2Y4 receptor (P51582 whole entry): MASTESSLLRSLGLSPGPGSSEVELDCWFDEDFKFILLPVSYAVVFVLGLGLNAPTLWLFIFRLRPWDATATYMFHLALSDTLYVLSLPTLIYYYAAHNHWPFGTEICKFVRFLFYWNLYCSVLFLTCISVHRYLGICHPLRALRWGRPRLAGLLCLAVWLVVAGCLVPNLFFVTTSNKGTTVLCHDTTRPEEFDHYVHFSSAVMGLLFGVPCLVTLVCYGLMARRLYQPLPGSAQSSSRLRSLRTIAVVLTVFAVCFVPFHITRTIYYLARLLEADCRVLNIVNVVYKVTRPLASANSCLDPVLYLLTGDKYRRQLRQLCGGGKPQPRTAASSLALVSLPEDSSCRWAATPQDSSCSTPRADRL

human NTPDase1 = target: T2, human NTPDase1 (Homo sapiens, UniProt P49961); experiment: Hydrolysis by NTPDase1; type: biochemical; details: 100 μM substrate; relative to ATP hydrolysis (100%)
T2 sequence (P49961 1-510): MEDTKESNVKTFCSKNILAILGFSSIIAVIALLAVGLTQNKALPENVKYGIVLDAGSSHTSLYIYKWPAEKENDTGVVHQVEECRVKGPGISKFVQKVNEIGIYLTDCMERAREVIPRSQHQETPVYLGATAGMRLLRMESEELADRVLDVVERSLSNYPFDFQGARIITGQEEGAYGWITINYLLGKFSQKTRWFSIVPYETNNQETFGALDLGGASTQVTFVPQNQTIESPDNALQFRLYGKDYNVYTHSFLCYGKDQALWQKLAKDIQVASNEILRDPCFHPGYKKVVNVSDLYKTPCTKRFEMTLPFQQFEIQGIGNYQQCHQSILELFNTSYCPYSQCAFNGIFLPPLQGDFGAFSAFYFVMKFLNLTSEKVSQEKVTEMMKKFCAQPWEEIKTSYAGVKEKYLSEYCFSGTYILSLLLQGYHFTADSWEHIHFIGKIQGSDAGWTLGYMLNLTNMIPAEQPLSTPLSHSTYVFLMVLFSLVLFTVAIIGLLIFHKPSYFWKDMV

human P2Y2 receptor = human P2Y2 receptor (Homo sapiens, UniProt P41231); experiment: Increase in [Ca2+]i in 1321N1 astrocytoma cells expressing P2Y2 receptor; type: cell-based
Sequence of human P2Y2 receptor (P41231 whole entry): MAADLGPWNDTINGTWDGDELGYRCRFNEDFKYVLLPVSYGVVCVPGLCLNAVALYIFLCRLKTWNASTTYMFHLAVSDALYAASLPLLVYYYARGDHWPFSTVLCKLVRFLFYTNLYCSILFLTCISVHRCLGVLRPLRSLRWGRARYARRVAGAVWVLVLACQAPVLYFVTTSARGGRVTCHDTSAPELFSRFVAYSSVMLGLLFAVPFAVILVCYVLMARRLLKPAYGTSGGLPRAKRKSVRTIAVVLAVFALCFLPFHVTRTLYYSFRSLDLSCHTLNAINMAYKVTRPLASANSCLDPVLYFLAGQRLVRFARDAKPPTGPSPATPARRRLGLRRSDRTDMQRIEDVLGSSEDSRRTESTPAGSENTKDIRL

human NTPDase3 = target: T3, human NTPDase3 (Homo sapiens, UniProt O75355); experiment: Hydrolysis by NTPDase3; type: biochemical; details: 100 μM substrate; relative to ATP hydrolysis (100%)
T3 sequence (O75355 1-529): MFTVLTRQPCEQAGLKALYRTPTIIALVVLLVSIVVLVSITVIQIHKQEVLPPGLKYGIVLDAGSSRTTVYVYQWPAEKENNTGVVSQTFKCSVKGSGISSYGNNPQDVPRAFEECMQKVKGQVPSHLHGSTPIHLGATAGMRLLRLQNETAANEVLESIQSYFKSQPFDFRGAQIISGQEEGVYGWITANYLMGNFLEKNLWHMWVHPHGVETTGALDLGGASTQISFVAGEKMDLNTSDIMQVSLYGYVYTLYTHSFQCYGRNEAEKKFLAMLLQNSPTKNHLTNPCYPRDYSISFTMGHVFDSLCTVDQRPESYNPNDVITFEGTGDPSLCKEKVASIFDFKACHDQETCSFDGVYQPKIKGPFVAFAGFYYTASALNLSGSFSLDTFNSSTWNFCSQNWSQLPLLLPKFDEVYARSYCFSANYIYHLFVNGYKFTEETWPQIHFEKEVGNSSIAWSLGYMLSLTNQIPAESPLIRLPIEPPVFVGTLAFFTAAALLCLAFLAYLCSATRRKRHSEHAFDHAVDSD

[4] = pKa and degree of ionization of phosphate/phosphonate; type: physicochemical; details: physiological conditions, pH 7.4
P2Y2R = details: cited from earlier work
perfused rat pancreas = perfused rat pancreas ref 31, cited from earlier work
[5] = pH 1.4, 37 °C ref 30; cited from earlier work
[6] = physiological pH ref 30; cited from earlier work

Compound: Nc1ncnc2c1ncn2[C@@H]1O[C@H](COP(=O)(O)OP(=O)(O)CP(=O)(O)O)[C@@H](O)[C@H]1O [β,γ-CH2–ATP]
- metabolism in cells [1]: rapidly metabolized to adenosine
- activation of P2Y1Rs (P2Y1R): did not activate
- antagonism at P2Y1R (P2Y1R; responses elicited by 2-MeS–ADP ref 48): weak competitive antagonist
- activity at P2X1R (P2X1R): P2X1R agonist
- activity at P2X2/3Rs (P2X2/3Rs): weak agonist
- degradation by ecto-5′-nucleotidases (ecto-5′-nucleotidases): no degradation

Compound: CSc1nc(N)c2ncn([C@@H]3O[C@H](COP(=O)(O)OP(=O)(O)CP(=O)(O)O)[C@@H](O)[C@H]3O)c2n1 [compound 2, 2-MeS–adenosine-5′-O-triphosphate-β,γ-CH2]
- Relative activity of NTPDase8 (human NTPDase8): 7–8%
- improvement of chemical stability as compared to 1 [2]: ~11 fold
- enhancement of the metabolic stability of ATP [3]: ≥ 3.5 fold
- EC50 (rat P2Y6 receptor): > 100 µM
- agonist activity at P2Y1R (turkey P2Y1 receptor): potent P2Y1R agonists
- EC50 (human P2Y4 receptor): > 100 µM
- Relative activity of NTPDase1 (human NTPDase1): 7–8%
- EC50 (human P2Y2 receptor): > 100 µM
- agonist activity at P2Y2R (human P2Y2 receptor; 1321N1 cell transfectants): inactivity
- degradation by ecto-5′-nucleotidases (ecto-5′-nucleotidases): no degradation
- Relative activity of NTPDase3 (human NTPDase3): 7–8%
- fraction ionized [4]: 9%

Compound: 2-MeS–ATP-α-B [compound 1]
- activity at P2Y2R (P2Y2R): very weak agonists
- enhancement of insulin secretion as compared to basal secretion (perfused rat pancreas): ninefold
- EC50 (perfused rat pancreas; read-out: EC50 of insulin secretion): 28 nM
- t1/2 of acidic hydrolysis [5]: 5.9 h
- t1/2 at physiological pH [6]: 1395 h

Compound: BP(=O)(OC[C@H]1O[C@@H](n2cnc3c(N)nc(Cl)nc32)[C@H](O)[C@@H]1O)OP(=O)(O)OP(=O)(O)O (stereo partly drawn) [2-Cl–ATP-α-B, reference compound]
- activity at P2Y2R (P2Y2R): very weak agonists
